Laboratory results from patent US6472348B1, “Pyridone derivatives and herbicides” (Kumiai Chemical Industry Co., Ltd., priority 1996, dated 2002).

Legend:
Format in all cases: in vivo
barnyardgrass (Ec) [1] = experiment: Test Example 1: herbicidal effects by paddy field soil treatment; conditions: 100 g of the active ingredient per 10 ares, 21st day after the application, index 0-5 of Table 47;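 also: grade of growth control; 5 = at least 90%; 4 = 70 to 90%; 3 = 50 to 70%; 2 = 30 to 50%; 1 = 10 to 30%; 0 = under 10%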
Procedure, shortened: (§1)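 Herbicidal effect was scored against a graded standard 21 days after treatment. Seeds were sown in puddled, leveled paddy soil flooded to 3 cm depth, and the active ingredient was applied at 100 g per 10 ares before greenhouse culture.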

monochoria (Mo) = experiment: as above; conditions: 100 g of the active ingredient per 10 ares, 21st day after the application, index 0-5 of Table 47;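 also: grade of growth control; 5 = at least 90%; 4 = 70 to 90%; 3 = 50 to 70%; 2 = 30 to 50%; 1 = 10 to 30%; 0 = under 10%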
Procedure, shortened: as §1

bulrush (Sc) = experiment: as above; conditions: 100 g of the active ingredient per 10 ares, 21st day after the application, index 0-5 of Table 47;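 also: grade of growth control; 5 = at least 90%; 4 = 70 to 90%; 3 = 50 to 70%; 2 = 30 to 50%; 1 = 10 to 30%; 0 = under 10%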
Procedure, shortened: as §1

corn (Ze) = experiment: Test Example 7: crop plant selectivity by upland field soil treatment (corn), phytotoxicity; parameters: scale not given here; conditions: dose 6.3 g ai/10a, 21st day after application
Method: (§2) (Test on Crop Plant Selectivity by Upland Field Soil Treatment)
(§3) In a plastic pot (surface area: 600 cm^2) filled with sand, corn (Ze), green foxtail (Se), pale smartweed (Po), slender amaranth (Am), common lambsquarters (Ch) and China jute (Ab) were sown and covered with soil. […] The plants were then cultured in a green house, and the evaluation of the herbicidal effects and phytotoxicity was conducted on the 21st day after the application in accordance with the standards as identified in Table 47.

pale smartweed (Po) [2] = experiment: Test Example 5: crop plant selectivity by upland field soil treatment (wheat), herbicidal effects; parameters: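 grade of growth control; 5 = at least 90%; 4 = 70 to 90%; 3 = 50 to 70%; 2 = 30 to 50%; 1 = 10 to 30%; 0 = under 10%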; conditions: 21st day after application
Method: as §2
(§4) In a plastic pot (surface area: 600 cm^2) filled with sand, wheat (Tr), Diaitaria ciliaris (Di), green foxtail (Se), pale smartweed (Po), slender amaranth (Am), common lambsquarters (Ch) and China jute (Ab) were sown and covered with soil. […] The plants were then cultured in a green house, and the evaluation of the herbicidal effects and phytotoxicity was conducted on the 21st day after the application in accordance with the standards as identified in Table 47. Symbol—represents “not tested”.

[3] = system: common lambsquarters (Ch); experiment: as above; parameters: scale not given here; conditions: 21st day after application
Method: as §2, §4

green foxtail (Se) [4] = experiment: as above; parameters: scale not given here; conditions: 21st day after application
Method: as §2, §4

slender amaranth (Am) [5] = experiment: as above; parameters: scale not given here; conditions: 21st day after application
Method: as §2, §4

pale smartweed (Po) [6] = experiment: Test Example 7: crop plant selectivity by upland field soil treatment (corn), herbicidal effects; parameters: scale not given here; conditions: dose 6.3 g ai/10a, 21st day after application
Method: as §2, §3

[7] = system: common lambsquarters (Ch); experiment: as above; parameters: scale not given here; conditions: dose 6.3 g ai/10a, 21st day after application
Method: as §2, §3

China jute (Ab) [8] = experiment: as above; parameters: scale not given here; conditions: dose 6.3 g ai/10a, 21st day after application
Method: as §2, §3

green foxtail (Se) [9] = experiment: as above; parameters: scale not given here; conditions: dose 6.3 g ai/10a, 21st day after application
Method: as §2, §3

slender amaranth (Am) [10] = experiment: as above; parameters: scale not given here; conditions: dose 6.3 g ai/10a, 21st day after application
Method: as §2, §3

wheat (Tr) = experiment: Test Example 5: crop plant selectivity by upland field soil treatment (wheat), phytotoxicity; parameters: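 grade of crop injury; 5 = at least 90%; 4 = 70 to 90%; 3 = 50 to 70%; 2 = 30 to 50%; 1 = 10 to 30%; 0 = under 10%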; conditions: 21st day after application
Method: as §2, §4

pale smartweed (Po) [11] = experiment: Test Example 6: crop plant selectivity by upland field soil treatment (soybean), herbicidal effects; parameters: scale not given here; conditions: dose 6.3 g ai/10a, 21st day after application
Method: as §2
(§5) In a plastic pot (surface area: 600 cm^2) filled with sand, soybean (Gl), Diaitaria ciliaris (Di), green foxtail (Se), Johnsongrass (So), pale smartweed (Po), slender amaranth (Am), common lambsquarters (Ch) and China jute (Ab) were sown and covered with soil. […] The plants were then cultured in a green house, and the evaluation of the herbicidal effects and phytotoxicity was conducted on the 21st day after the application in accordance with the standards as identified in Table 47. Symbol—represents “not tested”.

[12] = system: common lambsquarters (Ch); experiment: as above; parameters: scale not given here; conditions: dose 6.3 g ai/10a, 21st day after application
Method: as §2, §5

China jute (Ab) [13] = experiment: as above; parameters: scale not given here; conditions: dose 6.3 g ai/10a, 21st day after application
Method: as §2, §5

green foxtail (Se) [14] = experiment: as above; parameters: scale not given here; conditions: dose 6.3 g ai/10a, 21st day after application
Method: as §2, §5

slender amaranth (Am) [15] = experiment: as above; parameters: scale not given here; conditions: dose 6.3 g ai/10a, 21st day after application
Method: as §2, §5

cotton (Go) = experiment: Test Example 4: crop plant selectivity by upland field soil treatment (cotton), phytotoxicity; parameters: scale not given here; conditions: dose 6.3 g ai/10 a, evaluated 21st day after application
Method: as §2
(§6) In a plastic pot (surface area: 600 cm^2) filled with sand, cotton (Go), Diaitaria ciliaris (Di), green foxtail (Se), pale smartweed (Po), slender amaranth (Am), common lambsquarters (Ch) and China jute (Ab) were sown and covered with soil. […] The plants were then cultured in a green house, and the evaluation of the herbicidal effects and phytotoxicity was conducted on the 21st day after the application in accordance with the standards as identified in Table 47. Symbol—represents “not tested”.

barnyardgrass (Ec) [16] = experiment: Test Example 3: herbicidal effects by upland field foliage treatment; parameters: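 grade of growth control; 5 = at least 90%; 4 = 70 to 90%; 3 = 50 to 70%; 2 = 30 to 50%; 1 = 10 to 30%; 0 = under 10%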; conditions: 100 g of the active ingredient per 10 ares, evaluated on the 14th day after treatment
Procedure, shortened: (§7)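 Readout: visual herbicidal rating per defined standards, 14th day after treatment. Plants sown in sand (pot area 120 cm^2), soil-covered, greenhouse-cultured for 2 weeks prior to foliage application, then greenhouse-grown until scoring.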

pale smartweed (Po) [17] = experiment: as above; parameters: scale not given here; conditions: 100 g of the active ingredient per 10 ares, evaluated on the 14th day after treatment
Procedure, shortened: as §7

[18] = system: common lambsquarters (Ch); experiment: as above; parameters: scale not given here; conditions: 100 g of the active ingredient per 10 ares, evaluated on the 14th day after treatment
Procedure, shortened: as §7

rice flatsedge (Ci) [19] = experiment: as above; parameters: scale not given here; conditions: 100 g of the active ingredient per 10 ares, evaluated on the 14th day after treatment
Procedure, shortened: as §7

Diaitaria ciliaris (Di) = experiment: as above; parameters: scale not given here; conditions: 100 g of the active ingredient per 10 ares, evaluated on the 14th day after treatment
Procedure, shortened: as §7

slender amaranth (Am) [20] = experiment: as above; parameters: scale not given here; conditions: 100 g of the active ingredient per 10 ares, evaluated on the 14th day after treatment
Procedure, shortened: as §7

pale smartweed (Po) [21] = experiment: Test Example 4: crop plant selectivity by upland field soil treatment (cotton), herbicidal effects; parameters: scale not given here; conditions: dose 6.3 g ai/10 a, evaluated 21st day after application
Method: as §2, §6

[22] = system: common lambsquarters (Ch); experiment: as above; parameters: scale not given here; conditions: dose 6.3 g ai/10 a, evaluated 21st day after application
Method: as §2, §6

China jute (Ab) [23] = experiment: as above; parameters: scale not given here; conditions: dose 6.3 g ai/10 a, evaluated 21st day after application
Method: as §2, §6

green foxtail (Se) [24] = experiment: as above; parameters: scale not given here; conditions: dose 6.3 g ai/10 a, evaluated 21st day after application
Method: as §2, §6

slender amaranth (Am) [25] = experiment: as above; parameters: scale not given here; conditions: dose 6.3 g ai/10 a, evaluated 21st day after application
Method: as §2, §6

barnyardgrass (Ec) [26] = experiment: Test Example 2: herbicidal effects by upland field soil treatment; conditions: 100 g of the active ingredient per 10 ares;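 also: grade of growth control; 5 = at least 90%; 4 = 70 to 90%; 3 = 50 to 70%; 2 = 30 to 50%; 1 = 10 to 30%; 0 = under 10%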
Source text: (§8) (Test on Herbicidal Effects by Upland Field Soil Treatment)

pale smartweed (Po) [27] = experiment: as above; conditions: 100 g of the active ingredient per 10 ares
Source text: as §8

Digitaria ciliaris (Di) = experiment: as above; conditions: 100 g of the active ingredient per 10 ares
Source text: as §8

[28] = system: common lambsquarters (Ch); experiment: as above; conditions: 100 g of the active ingredient per 10 ares
Source text: as §8

rice flatsedge (Ci) [29] = experiment: as above; conditions: 100 g of the active ingredient per 10 ares
Source text: as §8

slender amaranth (Am) [30] = experiment: as above; conditions: 100 g of the active ingredient per 10 ares
Source text: as §8

soybean (Gl) = experiment: Test Example 6: crop plant selectivity by upland field soil treatment (soybean), phytotoxicity; parameters: scale not given here; conditions: dose 6.3 g ai/10a, 21st day after application
Method: as §2, §5

China jute (Ab) [31] = experiment: Test Example 5: crop plant selectivity by upland field soil treatment (wheat), herbicidal effects; parameters: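 grade of growth control; 5 = at least 90%; 4 = 70 to 90%; 3 = 50 to 70%; 2 = 30 to 50%; 1 = 10 to 30%; 0 = under 10%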; conditions: dose 6.3 g ai/10a, 21st day after application
Method: as §2, §4

[32] = 21st day after the application, index 0-5 of Table 47
[33] = evaluated on the 21st day after application

| SMILES | Herbicidal effects Ec (barnyardgrass (Ec) [1]) | Herbicidal effects Mo (monochoria (Mo)) | Herbicidal effects Sc (bulrush (Sc)) | Phytotoxicity Ze (corn (Ze)) | Herbicidal effects Po (pale smartweed (Po) [6]) | Herbicidal effects Ch [7] | Herbicidal effects Ab (China jute (Ab) [8]) | Herbicidal effects Se (green foxtail (Se) [9]) | Herbicidal effects Am (slender amaranth (Am) [10]) | Herbicidal effects Po (pale smartweed (Po) [11]) | Herbicidal effects Ch [12] | Herbicidal effects Ab (China jute (Ab) [13]) | Herbicidal effects Se (green foxtail (Se) [14]) | Herbicidal effects Am (slender amaranth (Am) [15]) | Phytotoxicity Go (cotton (Go)) | Herbicidal effects Ec (barnyardgrass (Ec) [16]) | Herbicidal effects Po (pale smartweed (Po) [17]) | Herbicidal effects Ch [18] | Herbicidal effects Ci (rice flatsedge (Ci) [19]) | Herbicidal effects Di (Diaitaria ciliaris (Di)) | other results |
| --- | --- | --- | --- | --- | --- | --- | --- | --- | --- | --- | --- | --- | --- | --- | --- | --- | --- | --- | --- | --- | --- |
| CCCOc1cc(-c2ccc(C(F)(F)F)n(C)c2=O)c(F)cc1Cl [1-154] | 5 | 5 | 5 | 1 | 5 | 5 | 5 | 5 | 5 | 5 | 5 | 5 | 5 | 5 | 0 | 5 | 5 | 5 | 5 | 5 | Herbicidal effects Po (pale smartweed (Po) [2]; dose 1.6 g ai/10a): 5; Herbicidal effects Ch ([3]; dose 1.6 g ai/10a): 5; Herbicidal effects Se (green foxtail (Se) [4]; dose 1.6 g ai/10a): 5; Herbicidal effects Am (slender amaranth (Am) [5]; dose 1.6 g ai/10a): 5; Phytotoxicity Tr (wheat (Tr); dose 1.6 g ai/10a): 1; Herbicidal effects Am (slender amaranth (Am) [20]): 5; Herbicidal effects Po (pale smartweed (Po) [21]): 5; Herbicidal effects Ch [22]: 5; Herbicidal effects Ab (China jute (Ab) [23]): 5; Herbicidal effects Se (green foxtail (Se) [24]): 5; Herbicidal effects Am (slender amaranth (Am) [25]): 5; Herbicidal effects Ec (barnyardgrass (Ec) [26]; [32]): 5; Herbicidal effects Po (pale smartweed (Po) [27]; [32]): 5; Herbicidal effects Di (Digitaria ciliaris (Di); [32]): 5; Herbicidal effects Ch [28, 32]: 5; Herbicidal effects Ci (rice flatsedge (Ci) [29]; [32]): 5; Herbicidal effects Am (slender amaranth (Am) [30]; [32]): 5; Phytotoxicity Gl (soybean (Gl)): 1 |
| CCC(C)Oc1cc(-c2ccc(C(F)(F)F)n(C)c2=O)c(F)cc1Cl (centres unmarked) [1-167] | 5 | 5 | 5 | 0 | 5 | 5 | 5 | 5 | 5 | 5 | 5 | 5 | 5 | 5 | 1 | 5 | 5 | 5 | 5 | 5 | Herbicidal effects Po (pale smartweed (Po) [2]; dose 6.3 g ai/10a): 5; Herbicidal effects Ch ([3]; dose 6.3 g ai/10a): 5; Herbicidal effects Ab (China jute (Ab) [31]): 5; Herbicidal effects Se (green foxtail (Se) [4]; dose 6.3 g ai/10a): 5; Herbicidal effects Am (slender amaranth (Am) [5]; dose 6.3 g ai/10a): 5; Phytotoxicity Tr (wheat (Tr); dose 6.3 g ai/10a): 1; Herbicidal effects Am (slender amaranth (Am) [20]): 5; Herbicidal effects Po (pale smartweed (Po) [21]): 5; Herbicidal effects Ch [22]: 5; Herbicidal effects Ab (China jute (Ab) [23]): 5; Herbicidal effects Se (green foxtail (Se) [24]): 5; Herbicidal effects Am (slender amaranth (Am) [25]): 5; Herbicidal effects Ec (barnyardgrass (Ec) [26]; [32]): 5; Herbicidal effects Po (pale smartweed (Po) [27]; [32]): 5; Herbicidal effects Di (Digitaria ciliaris (Di); [32]): 5; Herbicidal effects Ch [28, 32]: 5; Herbicidal effects Ci (rice flatsedge (Ci) [29]; [32]): 5; Herbicidal effects Am (slender amaranth (Am) [30]; [32]): 5; Phytotoxicity Gl (soybean (Gl)): 1 |
| Cn1c(C(F)(F)F)ccc(-c2cc(OCC(F)F)c(Cl)cc2F)c1=O [1-173] | 5 | 5 | 5 | 1 | 5 | 5 | 5 | 5 | 5 | 5 | 5 | 5 | 5 | 5 | 1 | 5 | 5 | 5 | 5 | 5 | Herbicidal effects Po (pale smartweed (Po) [2]; dose 6.3 g ai/10a): 5; Herbicidal effects Ch ([3]; dose 6.3 g ai/10a): 5; Herbicidal effects Ab (China jute (Ab) [31]): 5; Herbicidal effects Se (green foxtail (Se) [4]; dose 6.3 g ai/10a): 5; Herbicidal effects Am (slender amaranth (Am) [5]; dose 6.3 g ai/10a): 5; Phytotoxicity Tr (wheat (Tr); dose 6.3 g ai/10a): 1; Herbicidal effects Am (slender amaranth (Am) [20]): 5; Herbicidal effects Po (pale smartweed (Po) [21]): 5; Herbicidal effects Ch [22]: 5; Herbicidal effects Ab (China jute (Ab) [23]): 5; Herbicidal effects Se (green foxtail (Se) [24]): 5; Herbicidal effects Am (slender amaranth (Am) [25]): 5; Herbicidal effects Ec (barnyardgrass (Ec) [26]; [33]): 5; Herbicidal effects Po (pale smartweed (Po) [27]; [33]): 5; Herbicidal effects Di (Digitaria ciliaris (Di); [33]): 5; Herbicidal effects Ch [28, 33]: 5; Herbicidal effects Ci (rice flatsedge (Ci) [29]; [33]): 5; Herbicidal effects Am (slender amaranth (Am) [30]; [33]): 5; Phytotoxicity Gl (soybean (Gl)): 1 |
